Data reported in ChEMBL document CHEMBL1201862, “PubChem BioAssay data set” (2004).
Calls of active or inactive are those of the source.

Key:
[1] = target: Potassium voltage-gated channel subfamily KQT member 2 (Rattus norvegicus, UniProt O88943); experiment: retigabine-insensitive KCNQ2 potentiators, concentration-response, dose response, cell-based, retigabine-insensitive compounds (AID 2654); format: functional
[2] = off-target signal loss in HeLa-CEM21 co-culture – HeLa F-luc CTL cells, cherry-picked, counter-screen for HIV-1 Env fusion inhibitor project, dose response (AID 652040); format: functional, cell-based;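 further: potency for signal decrease marking cytotoxic or nonspecific inhibition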
[3] = inhibitors of HIV Env-driven cell fusion, dose response, cherry-pick (AID 652057); format: functional, cell-based
[4] = target: T1, Luciferin 4-monooxygenase (Photinus pyralis, UniProt P08659); experiment: Counter Screen for Luciferase-based Assay Positives. [Related pubchem assays: 620, 618, 411 ]
T1 sequence (P08659 whole entry): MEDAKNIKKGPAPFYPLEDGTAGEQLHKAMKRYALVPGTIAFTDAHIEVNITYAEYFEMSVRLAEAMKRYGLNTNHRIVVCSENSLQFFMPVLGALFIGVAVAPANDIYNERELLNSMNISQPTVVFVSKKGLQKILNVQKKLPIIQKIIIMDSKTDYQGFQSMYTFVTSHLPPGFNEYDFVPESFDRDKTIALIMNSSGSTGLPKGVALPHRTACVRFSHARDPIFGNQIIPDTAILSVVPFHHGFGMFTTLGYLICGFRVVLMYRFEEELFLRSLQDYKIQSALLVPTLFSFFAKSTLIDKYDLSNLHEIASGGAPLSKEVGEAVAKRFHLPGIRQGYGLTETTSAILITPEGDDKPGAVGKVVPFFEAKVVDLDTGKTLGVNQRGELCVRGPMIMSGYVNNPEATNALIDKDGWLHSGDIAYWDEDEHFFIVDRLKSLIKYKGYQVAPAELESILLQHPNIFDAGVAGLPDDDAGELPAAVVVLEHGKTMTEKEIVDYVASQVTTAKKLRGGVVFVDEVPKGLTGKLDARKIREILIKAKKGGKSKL

HEK293 [5] = experiment: Cytotoxicity assay in HEK293 cells. [Related pubchem assays (depositor defined):AID1266, AID1269, AID1270, AID1271, AID1280, AID1281, AID1282, AID1283, AID1287, AID1289, AID1290, AID1291, AID1292, AID1293, AID1294, AID1295, AID1299, AID1302, AID1364, AID1365, AID1366, AID1367, AID1369, AID1370, AID1371, AID1372, AID1373, AID1374, AID1375, AID1384 …; format: functional, cell-based; details: Homo sapiens
[6] = target: T1, Luciferin 4-monooxygenase; experiment: In vitro luciferase assay using purified luciferase. [Related pubchem assays: 1299, 1270, 1295, 1375, 1287, 1281, 1293, 1291, 1289, 1280, 465, 1364, 1282, 1372, 1365, 1370, 1367, 1366, 1266, 1373, 1292, 1290, 1302, 1371, 1283, 1271, 1294, 1374, 1368, 1369 ]
[7] = target: Glyceraldehyde-3-phosphate dehydrogenase (Homo sapiens, UniProt P04406)
Chain of Glyceraldehyde-3-phosphate dehydrogenase (P04406 whole entry): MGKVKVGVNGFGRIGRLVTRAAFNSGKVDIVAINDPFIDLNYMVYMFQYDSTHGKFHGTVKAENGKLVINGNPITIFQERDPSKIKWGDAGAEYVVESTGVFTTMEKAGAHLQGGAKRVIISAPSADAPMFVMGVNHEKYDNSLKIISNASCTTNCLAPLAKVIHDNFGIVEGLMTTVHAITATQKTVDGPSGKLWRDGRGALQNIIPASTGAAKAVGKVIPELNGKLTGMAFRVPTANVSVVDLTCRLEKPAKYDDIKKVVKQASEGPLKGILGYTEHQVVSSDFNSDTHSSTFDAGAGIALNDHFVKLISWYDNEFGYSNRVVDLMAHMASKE

HEK293 [8] = experiment: PMA/Ionomycin induced NF-kB luciferase assay in 293- NF-kB-Luc stable cells. [Related pubchem assays: 1299, 1270, 1295, 1375, 1287, 1281, 1293, 1291, 1289, 1280, 465, 1364, 1282, 1372, 1365, 1370, 1367, 1366, 1269, 1373, 1292, 1290, 1302, 1371, 1283, 1271, 1294, 1374, 1368, 1369 ]; format: functional, cell-based; details: Homo sapiens
HT-1080 = experiment: cytotoxicity in HT1080 fibrosarcoma cells, cell-based, fluorescence readout (AID 620); format: functional; details: Homo sapiens
[9] = inhibitors of clade B AD8 Env fusion, dose response, cell-based, cherry-pick (AID 652062); format: functional;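 further: luciferase signal from cell-cell fusion driven by HIV-1 clade B AD8 Env; potency is for inhibitors of fusion seen as a drop in luminescence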
Protein Rev = Protein Rev (Human immunodeficiency virus type 1 group M subtype B (isolate HXB2)(HIV-1), UniProt P04618); experiment: inhibitors of Rev binding to RRE RNA, dose response, biochemical, fluorescence polarization, HIV-1 (AID 434976); set-up: species or system Human immunodeficiency virus 1
Chain of Protein Rev (P04618 whole entry, the tested form may be a part): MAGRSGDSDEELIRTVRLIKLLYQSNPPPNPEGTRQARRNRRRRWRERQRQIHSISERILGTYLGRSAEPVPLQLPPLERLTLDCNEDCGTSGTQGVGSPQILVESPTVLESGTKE

[10] = target: T2, RNA-binding protein pos-1 (Caenorhabditis elegans, UniProt G5EF15); experiment: inhibitors of POS-1/mex-3 RNA binding, dose response, biochemical, fluorescence polarization (AID 1964);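 further: purified POS-1 fused to maltose binding protein made in E. coli; potency of compounds blocking POS-1 binding to fluorescent RNA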
T2 sequence (G5EF15 whole entry): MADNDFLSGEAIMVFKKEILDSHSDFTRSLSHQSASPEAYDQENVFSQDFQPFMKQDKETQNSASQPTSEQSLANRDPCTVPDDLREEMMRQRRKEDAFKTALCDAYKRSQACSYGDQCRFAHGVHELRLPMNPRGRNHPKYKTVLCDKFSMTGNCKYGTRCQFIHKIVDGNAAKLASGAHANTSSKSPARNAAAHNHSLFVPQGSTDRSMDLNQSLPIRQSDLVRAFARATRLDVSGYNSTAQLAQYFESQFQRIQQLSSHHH

[11] = target: Female germline-specific tumor suppressor gld-1 (Caenorhabditis elegans, UniProt Q17339); experiment: inhibitors of GLD-1 binding to TGE RNA, dose response, biochemical, fluorescence polarization, C. elegans (AID 2802);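 further: fluorescence polarization of labeled TGE RNA bound by purified gld-1 protein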
[12] = target: T3, Zinc finger protein mex-5 (Caenorhabditis elegans, UniProt Q9XUB2); experiment: MEX-5/TCR-2 RNA interaction inhibitors, dose response, biochemical, C. elegans, fluorescence polarization (AID 1960)
T3 sequence (Q9XUB2 whole entry): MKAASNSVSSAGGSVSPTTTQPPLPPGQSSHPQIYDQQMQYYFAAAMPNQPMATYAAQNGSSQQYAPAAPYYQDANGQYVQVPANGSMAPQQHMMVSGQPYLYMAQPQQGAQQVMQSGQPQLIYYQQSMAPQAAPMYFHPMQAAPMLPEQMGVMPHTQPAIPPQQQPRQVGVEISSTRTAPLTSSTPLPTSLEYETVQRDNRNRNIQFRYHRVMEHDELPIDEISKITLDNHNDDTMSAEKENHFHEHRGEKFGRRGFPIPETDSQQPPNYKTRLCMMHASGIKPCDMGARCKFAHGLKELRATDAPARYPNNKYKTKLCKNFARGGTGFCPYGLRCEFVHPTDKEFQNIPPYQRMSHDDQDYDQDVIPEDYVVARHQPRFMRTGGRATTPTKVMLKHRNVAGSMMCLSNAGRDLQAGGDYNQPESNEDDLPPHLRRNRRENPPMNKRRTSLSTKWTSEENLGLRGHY

Fatty acid synthase [13] = target: T4, Fatty acid synthase (Homo sapiens, UniProt P49327); experiment: FAS thioesterase domain inhibitors, dose response, biochemical, endpoint fluorescence intensity, uHTS hits (AID 624327); format: functional;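 further: fluorescence from hydrolysis of an O-methyl fluorescein acyl ester substrate by the enzyme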
T4 sequence (P49327 whole entry, the tested form may be a part): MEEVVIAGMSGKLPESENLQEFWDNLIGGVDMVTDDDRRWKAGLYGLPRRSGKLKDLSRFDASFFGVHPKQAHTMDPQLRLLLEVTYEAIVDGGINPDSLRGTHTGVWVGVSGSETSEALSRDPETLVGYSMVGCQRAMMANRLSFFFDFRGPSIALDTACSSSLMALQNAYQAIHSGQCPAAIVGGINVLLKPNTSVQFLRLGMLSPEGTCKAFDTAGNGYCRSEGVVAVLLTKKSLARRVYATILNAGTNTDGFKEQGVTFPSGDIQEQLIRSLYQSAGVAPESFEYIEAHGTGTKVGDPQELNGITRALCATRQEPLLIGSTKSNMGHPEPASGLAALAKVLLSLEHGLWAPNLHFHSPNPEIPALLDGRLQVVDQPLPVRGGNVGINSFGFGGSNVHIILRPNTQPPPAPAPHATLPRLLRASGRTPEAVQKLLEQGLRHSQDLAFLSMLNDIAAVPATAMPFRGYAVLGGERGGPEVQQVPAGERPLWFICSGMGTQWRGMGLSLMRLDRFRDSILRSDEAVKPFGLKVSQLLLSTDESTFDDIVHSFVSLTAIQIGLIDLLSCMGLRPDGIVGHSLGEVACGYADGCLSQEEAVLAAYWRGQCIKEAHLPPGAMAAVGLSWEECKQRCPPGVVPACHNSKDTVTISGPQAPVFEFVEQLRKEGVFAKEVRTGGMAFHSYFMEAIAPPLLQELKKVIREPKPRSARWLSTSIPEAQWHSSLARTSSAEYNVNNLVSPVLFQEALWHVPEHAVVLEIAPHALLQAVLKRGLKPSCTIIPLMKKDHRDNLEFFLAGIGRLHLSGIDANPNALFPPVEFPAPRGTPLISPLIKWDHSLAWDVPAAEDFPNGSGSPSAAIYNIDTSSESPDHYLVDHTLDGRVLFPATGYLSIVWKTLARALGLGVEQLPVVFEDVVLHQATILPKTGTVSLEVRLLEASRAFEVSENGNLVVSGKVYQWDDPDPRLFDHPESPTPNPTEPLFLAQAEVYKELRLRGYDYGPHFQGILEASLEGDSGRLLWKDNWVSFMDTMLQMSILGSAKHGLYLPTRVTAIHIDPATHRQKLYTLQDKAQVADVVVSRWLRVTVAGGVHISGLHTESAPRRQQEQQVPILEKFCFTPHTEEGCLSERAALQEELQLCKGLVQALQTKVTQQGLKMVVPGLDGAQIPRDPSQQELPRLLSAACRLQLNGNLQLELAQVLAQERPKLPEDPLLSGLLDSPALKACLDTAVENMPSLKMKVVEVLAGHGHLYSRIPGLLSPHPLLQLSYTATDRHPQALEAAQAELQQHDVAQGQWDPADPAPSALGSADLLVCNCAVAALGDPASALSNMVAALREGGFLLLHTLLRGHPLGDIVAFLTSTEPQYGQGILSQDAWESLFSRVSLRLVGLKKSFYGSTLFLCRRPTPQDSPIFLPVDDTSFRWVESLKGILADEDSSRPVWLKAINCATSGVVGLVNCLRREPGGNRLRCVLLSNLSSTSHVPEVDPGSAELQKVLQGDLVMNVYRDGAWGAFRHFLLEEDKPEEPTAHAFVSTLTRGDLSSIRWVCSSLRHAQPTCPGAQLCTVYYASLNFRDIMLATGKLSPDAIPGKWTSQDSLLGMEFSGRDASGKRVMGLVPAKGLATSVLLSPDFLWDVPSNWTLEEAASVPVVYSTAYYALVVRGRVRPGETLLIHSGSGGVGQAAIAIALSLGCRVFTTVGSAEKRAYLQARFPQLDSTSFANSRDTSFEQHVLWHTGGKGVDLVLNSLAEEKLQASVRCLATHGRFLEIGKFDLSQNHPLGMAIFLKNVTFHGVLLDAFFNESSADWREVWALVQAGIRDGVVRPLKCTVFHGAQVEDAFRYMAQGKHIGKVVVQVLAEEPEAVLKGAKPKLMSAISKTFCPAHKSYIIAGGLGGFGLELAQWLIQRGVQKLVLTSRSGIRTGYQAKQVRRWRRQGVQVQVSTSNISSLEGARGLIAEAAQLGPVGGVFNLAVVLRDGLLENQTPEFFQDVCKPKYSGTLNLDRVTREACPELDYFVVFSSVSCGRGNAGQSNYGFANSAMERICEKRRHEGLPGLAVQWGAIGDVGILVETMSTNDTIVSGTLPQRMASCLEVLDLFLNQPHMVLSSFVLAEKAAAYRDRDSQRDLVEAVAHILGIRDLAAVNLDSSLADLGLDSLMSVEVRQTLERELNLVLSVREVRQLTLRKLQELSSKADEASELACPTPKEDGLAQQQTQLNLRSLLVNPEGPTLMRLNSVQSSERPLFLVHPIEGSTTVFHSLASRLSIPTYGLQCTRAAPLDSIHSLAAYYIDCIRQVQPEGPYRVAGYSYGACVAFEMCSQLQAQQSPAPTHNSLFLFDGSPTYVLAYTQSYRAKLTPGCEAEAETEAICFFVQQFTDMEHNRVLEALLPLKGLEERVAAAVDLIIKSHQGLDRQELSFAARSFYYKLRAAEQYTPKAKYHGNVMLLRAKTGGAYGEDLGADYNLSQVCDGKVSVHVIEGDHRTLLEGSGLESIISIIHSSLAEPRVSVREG

Fatty acid synthase [14] = target: T4, Fatty acid synthase; experiment: FAS thioesterase domain inhibitors, dose response, biochemical, kinetic fluorescence intensity (AID 624326); format: functional;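 further: rate of fluorescence rise from hydrolysis of a fluorogenic O-methyl fluorescein ester substrate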
[15] = target: Neurotensin receptor type 1 (Homo sapiens, UniProt P30989); format: functional;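 further: Image-based confirmatory dose-response assay measuring agonist activity at NTR1; NTR1-expressing U2OS osteosarcoma cells imaged for beta-arrestin GFP spot formation; agonist potency where compounds increase beta-arrestin recruitment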
[16] = target: Heat shock protein HSP 90-alpha (Homo sapiens, UniProt P07900); experiment: Luminescence-based dose response biochemical high throughput screening assay for inhibitors of the Heat Shock Protein 90 (HSP90). [Related pubchem assays: 1831 (Summary AID.), 1846 (Confirmation screen.), 1789 (Primary screen.)]
[17] = target: T5, Heat shock factor protein 1 (Mus musculus, UniProt P38532); experiment: inhibition of MG132-induced HSE-luciferase signal, confirmation, cell-based, NIH3T3, luminescence, dose retest (AID 2382); format: functional;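 further: NIH3T3 fibroblasts with HSF1-driven luciferase reporter stressed by proteasome inhibitor MG132; luminescence from HSF1-driven luciferase expression after 8 hours of MG132 stress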
T5 sequence (P38532 whole entry): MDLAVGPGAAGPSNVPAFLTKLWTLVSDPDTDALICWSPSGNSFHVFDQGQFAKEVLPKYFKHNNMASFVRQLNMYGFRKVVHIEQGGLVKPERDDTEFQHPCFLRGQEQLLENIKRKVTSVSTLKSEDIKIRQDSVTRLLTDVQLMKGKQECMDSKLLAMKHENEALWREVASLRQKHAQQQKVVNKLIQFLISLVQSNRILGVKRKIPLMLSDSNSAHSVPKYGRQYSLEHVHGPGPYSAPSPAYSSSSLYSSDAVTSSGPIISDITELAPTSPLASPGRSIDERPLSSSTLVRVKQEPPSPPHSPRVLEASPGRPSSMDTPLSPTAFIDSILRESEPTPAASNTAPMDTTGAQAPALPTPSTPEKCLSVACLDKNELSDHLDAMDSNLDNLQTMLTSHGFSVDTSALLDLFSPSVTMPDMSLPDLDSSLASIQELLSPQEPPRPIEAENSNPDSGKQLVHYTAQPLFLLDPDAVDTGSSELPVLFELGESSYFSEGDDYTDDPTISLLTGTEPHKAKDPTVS

[18] = cytotoxicity in HEK-293T cells, dose response, cytotoxicity control for BCR NF-kB inhibitor project, luminescence, B-cell screen hits (AID 489021); format: functional, cell-based;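 further: HEK-293T cells carrying an NF-kB luciferase reporter; cells exposed to compound for about 14 hours before viability readout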
[19] = target: T6, Kappa-type opioid receptor (Homo sapiens, UniProt P41145); format: functional
T6 sequence (P41145 whole entry, the tested form may be a part): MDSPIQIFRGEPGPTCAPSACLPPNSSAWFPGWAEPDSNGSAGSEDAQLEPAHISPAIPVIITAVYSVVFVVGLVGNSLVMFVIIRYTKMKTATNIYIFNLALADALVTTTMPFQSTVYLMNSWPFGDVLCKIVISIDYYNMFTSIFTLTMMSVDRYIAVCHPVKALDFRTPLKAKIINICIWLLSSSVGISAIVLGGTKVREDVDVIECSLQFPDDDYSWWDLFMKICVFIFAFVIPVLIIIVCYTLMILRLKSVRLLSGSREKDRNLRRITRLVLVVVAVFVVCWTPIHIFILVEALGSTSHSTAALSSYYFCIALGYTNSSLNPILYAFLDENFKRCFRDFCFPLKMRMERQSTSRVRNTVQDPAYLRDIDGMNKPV

[20] = Fluorescence-based cell-based high throughput dose response assay for inhibitors of the interaction of nucleotide-binding oligomerization domain containing 2 (NOD2) and the receptor-interacting serine-threonine kinase 2 (RIPK2).; format: functional; details: Homo sapiens
[21] = growth suppression of beta-catenin-knockout colon cells, dose response, cell-based, HCT116, human colon tumor (AID 1045); format: functional;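 further: HCT116 colon tumor cells with beta catenin knocked out; cells exposed to compound for 60 hours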
[22] = target: T6, Kappa-type opioid receptor; format: functional; remark: listed apart in the source
[23] = growth suppression of PTEN-null colon cells, dose response, cell-based, HCT116 PTEN knockout (AID 1047); format: functional;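 further: HCT116 colon tumor cells with PTEN knocked out; cells exposed to compound for 60 hours before readout; potency for loss of cell viability measured by luminescence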
Beta-galactosidase = Beta-galactosidase (Escherichia coli, UniProt Q8VNN2); format: functional
Chain of Beta-galactosidase (Q8VNN2 whole entry): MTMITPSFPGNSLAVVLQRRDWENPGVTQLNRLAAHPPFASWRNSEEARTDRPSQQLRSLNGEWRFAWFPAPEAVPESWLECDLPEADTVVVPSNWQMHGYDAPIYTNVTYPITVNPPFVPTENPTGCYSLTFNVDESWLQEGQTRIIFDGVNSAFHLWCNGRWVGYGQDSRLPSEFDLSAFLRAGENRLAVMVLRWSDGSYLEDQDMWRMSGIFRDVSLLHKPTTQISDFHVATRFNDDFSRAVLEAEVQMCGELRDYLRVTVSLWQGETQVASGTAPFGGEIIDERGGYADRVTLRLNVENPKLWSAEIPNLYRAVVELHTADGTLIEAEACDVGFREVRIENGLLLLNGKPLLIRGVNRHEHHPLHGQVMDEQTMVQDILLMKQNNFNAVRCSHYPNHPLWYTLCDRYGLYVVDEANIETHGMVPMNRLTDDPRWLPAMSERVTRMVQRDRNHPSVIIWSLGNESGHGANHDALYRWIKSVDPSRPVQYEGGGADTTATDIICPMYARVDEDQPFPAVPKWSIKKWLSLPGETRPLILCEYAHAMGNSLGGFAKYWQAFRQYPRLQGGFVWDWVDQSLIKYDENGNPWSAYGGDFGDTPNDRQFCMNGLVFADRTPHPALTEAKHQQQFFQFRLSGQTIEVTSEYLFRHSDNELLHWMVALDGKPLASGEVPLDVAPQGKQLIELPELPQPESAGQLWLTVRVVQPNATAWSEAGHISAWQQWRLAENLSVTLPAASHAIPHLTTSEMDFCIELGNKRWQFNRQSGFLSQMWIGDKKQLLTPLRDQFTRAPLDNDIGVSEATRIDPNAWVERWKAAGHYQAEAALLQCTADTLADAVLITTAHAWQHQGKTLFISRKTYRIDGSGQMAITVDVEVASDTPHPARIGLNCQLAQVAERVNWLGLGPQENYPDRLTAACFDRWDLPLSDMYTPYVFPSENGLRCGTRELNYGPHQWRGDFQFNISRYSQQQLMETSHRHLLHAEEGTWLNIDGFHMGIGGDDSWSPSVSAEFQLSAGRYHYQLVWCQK

In the case of `CCOc1ccc(NC(=O)Nc2cccnc2)cc1`, the EC50 [1] is reported as 14.3 µM (active).

In the case of `O=C(c1ccc(Cl)cc1)N1CCCCC(Sc2nnc(-c3ccc4c(c3)OCO4)o2)C1=O` (stereo unspecified), the AC50 [2] is reported as 13.5 µM (active), the AC50 [3] is reported as 2.78 µM (active) and the EC50 [4] is reported as 4.07 µM (active). The EC50 (HEK293 [5]) was 2.19 µM (active), the EC50 [6] was > 8 µM (not active) and the IC50 [7] was > 100 µM (not active). The EC50 (HEK293 [8]) was 4.25 µM (not active), the EC50 (HT-1080) was > 50 µM (not active) and the AC50 [9] was 5.75 µM (active).

For `CCCCN(C(=O)c1ccc([N+](=O)[O-])o1)c1c(N)n(CC(C)C)c(=O)[nH]c1=O`, the IC50 (Protein Rev) was 7.26 µM (active), the EC50 [10] was 18.7 µM (active) and the IC50 [11] was 2.74 µM (active). The EC50 [12] was 16 µM (active).

In the case of `C[C@@H](NC(=O)c1[nH]cnc1C(=O)Nc1ccc(Cl)cc1)c1ccccc1`, the IC50 (Fatty acid synthase [13]) is reported as 8.13 µM (active), the IC50 (Fatty acid synthase [14]) is reported as 7.01 µM (active) and the EC50 [15] is reported as 19.9 µM (active).

In the case of `Cc1ccc(/C=C2\SC(=S)N(CCCC(=O)Nc3ccccn3)C2=O)cc1`, the IC50 [16] is reported as 17.8 µM (not active), the EC50 [17] is reported as 1.51 µM (active) and the IC50 [18] is reported as > 80 µM (inactive).

With `N#CC(C#N)=C1C=CC=CN1/C(=C\c1ccco1)C(=O)c1ccc(-c2ccccc2)cc1` the IC50 [19] was 16.1 µM (active), the IC50 [20] was 0.945 µM (active) and the EC50 [21] was 4.81 µM (active). The IC50 [22] was greater than 32 µM, the EC50 [23] was 4.69 µM (active) and the EC50 (Beta-galactosidase) was > 31.5 µM (inactive).
